Our source for the IC50 and EC50 values is patent US20250011318A1 (ARCUS BIOSCIENCES, INC., priority 2023, published 2025).

Where only a bound is given, the exact number is not on record here.

The target of one experiment is T1, Cbl-b (Homo sapiens, UniProt Q13191).
T1 construct: biotin (biotinylated)
Briefly: Cbl-b probe displacement HTRF binding assay. As to conditions: 0.4 nM biotinylated Cbl-b, 150 nM BODIPY probe. As to the method: The affinity with which compounds of the present disclosure bind to Cbl-b was assessed using probe displacement homologous time resolved fluorescence (HTRF) assays. The assays used a BODIPY™ conjugated probe (Example 54 from WO 2020264398) and biotinylated Cbl-b. The assays were performed in assay buffer consisting of 20 mM Hepes, 150 mM NaCl, 0.01% Triton X-100, 0.5 mM TCEP, 0.01% BSA. On the day of the assay, a 20 point, 1:2 master serial dilution of each compound was prepared in DMSO to span a final concentration range of 10 μM to 0 nM. Two hundred nanoliters of diluted compound was added to each well of a 384-well plate. Fifteen microliters of biotinylated—Cbl-b resuspended in assay buffer were added to each well and the plate incubated for 60 minutes at room temperature prior to addition of 5 μL of BODIPY™ probe in assay buffer. Final assay conditions included 0.4 nM of Cbl-b and 150 nM of BODIPY™ probe. After a further 15 minutes of incubation at room temperature, 5 μl of Streptavidin-Terbium cryptate reagent at 5-fold final concentration was added to each well of the 384-well plate. Binding of a probe to Cbl-b results in an increase of HTRF signal. HTRF signal was measured by Envision plate reader, while competition of a compound of the present disclosure with probe results in a decrease of signal. Percentage maximum activity in each test well was calculated based on DMSO (maximum activity, 0% displacement) and no protein control wells (baseline activity, 100% displacement). Binding affinity was determined from a dose response curve fitted using a standard four parameter fit equation. See Table 3 for data for compounds (Cbl-b Binding (IC50)).
(In TR-FRET formats the signal depends on donor and acceptor labels being close together.)

In a further experiment the test system is Jurkat cells. Briefly: IL-2 secretion assay in CD3/CD28-activated Jurkat cells (AlphaLISA). The format is cell-based, human. As to conditions: CD3/CD28 T Cell Activator, 24 h, IL-2 AlphaLISA. The method, then: Certain compounds were also evaluated in an IL-2 secretion assay. On the day of the assay, a 16 point, 1:2 master serial dilution of each compound was prepared in Opti-MEM to span a final concentration range of 10 μM to 300 pM. Assays were setup in CORNING® tissue culture-treated 384-well microplates containing 60 nL of each dilution. Jurkat cells grown in RPMI-1640 supplemented with 10% FBS, 1% Glutamax, and 1% Pen/Strep were collected, resuspended in Opti-MEM. 50,000 cells/well and added to the compound plates. After a short spin (1200 rpm for 1 min), the plates were incubated at 37° C. for 1 hour. The cells were activated by adding 15 μL of IMUNOCULT™ Human CD3/CD28 T Cell Activator (STEMCELL Technologies) diluted in Opti-MEM. After 24 h of incubation at 37° C., aliquots of culture supernatants were transferred to OptiPlate-384 (PerkinElmer) microplates. The level of IL-2 secretion in the supernatants was then determined using the IL-2 (human) AlphaLISA Detection Kit (PerkinElmer) according to the manufacturer's recommendations. The AlphaLISA signal was measured using an EnVision plate reader (PerkinElmer). EC50 values were determined by fitting the data to a standard 4-parameter logistic equation. See Table 3 for data for select compounds (IL-2 Secretion (EC50)).
(Alpha assays give light when donor and acceptor beads are brought close together.)

T1 sequence (Q13191 whole entry, species assumed): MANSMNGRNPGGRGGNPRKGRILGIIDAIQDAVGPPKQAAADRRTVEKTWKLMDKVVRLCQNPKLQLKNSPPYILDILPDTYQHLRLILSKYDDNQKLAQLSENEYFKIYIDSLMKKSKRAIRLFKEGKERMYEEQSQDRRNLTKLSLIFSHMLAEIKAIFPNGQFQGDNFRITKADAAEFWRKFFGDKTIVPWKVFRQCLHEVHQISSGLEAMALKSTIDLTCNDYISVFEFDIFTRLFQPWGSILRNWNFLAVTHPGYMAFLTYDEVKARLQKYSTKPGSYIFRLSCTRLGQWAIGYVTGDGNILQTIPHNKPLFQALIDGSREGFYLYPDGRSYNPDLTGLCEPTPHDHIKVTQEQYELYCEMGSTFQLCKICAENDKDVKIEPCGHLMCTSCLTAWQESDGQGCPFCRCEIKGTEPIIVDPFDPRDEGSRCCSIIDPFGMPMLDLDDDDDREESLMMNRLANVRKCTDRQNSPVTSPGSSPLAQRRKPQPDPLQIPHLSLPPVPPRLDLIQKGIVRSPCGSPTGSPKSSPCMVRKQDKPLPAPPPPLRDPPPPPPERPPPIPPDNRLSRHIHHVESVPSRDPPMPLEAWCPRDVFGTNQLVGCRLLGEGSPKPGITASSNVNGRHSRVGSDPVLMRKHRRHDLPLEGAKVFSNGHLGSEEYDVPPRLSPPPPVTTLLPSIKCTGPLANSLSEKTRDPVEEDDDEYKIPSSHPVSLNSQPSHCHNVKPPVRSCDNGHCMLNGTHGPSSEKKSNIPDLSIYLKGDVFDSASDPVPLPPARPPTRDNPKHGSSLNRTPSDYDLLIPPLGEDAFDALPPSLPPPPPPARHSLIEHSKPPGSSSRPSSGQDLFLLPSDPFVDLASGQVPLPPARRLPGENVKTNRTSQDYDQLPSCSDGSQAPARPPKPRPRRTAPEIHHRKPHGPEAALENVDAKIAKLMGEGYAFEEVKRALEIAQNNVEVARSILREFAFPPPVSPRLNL

As a reminder, the IC50 is the concentration that inhibits the measured activity by half. A higher IC50 goes with a need for much substance. Usually EC50 stands for the midpoint of the concentration-response curve. Higher therefore signals lower potency in that assay. `C[C@H]1CCCN(Cc2cc3c(C4CC4)cn(-c4cc(-c5ccc(F)cc5-c5nncn5C)cc(Cl)n4)c(=O)c3[nH]2)C1` [Example 6, 2-{1[(S)-3-Methyl-1-piperidyl]methyl}-6-{6-chloro-4-[4-fluoro-2-(4-methyl-4H-1,2,4-triazol-3-yl)phenyl]-2-pyridyl}-4-cyclopropyl-1,6-dihydro-1,6-diaza-7-indenone]: the IC50 on Cbl-b is < 100 nM. The EC50 in the experiment with Jurkat cells (Homo sapiens) was < 100 nM.

In the case of `Cn1cc(C#N)nc1-c1cc(F)ccc1-c1cc(C2CC2)nc(-n2cc(C(F)(F)F)c3nc([C@H]4CCOC4)[nH]c3c2=O)c1` [Example 48, 2-[2-(2-{2-[(R)-Tetrahydro-3-furyl]-4-oxo-7-(trifluoromethyl)-3,5-dihydro-1,3,5-triaza-5-indenyl}-6-cyclopropyl-4-pyridyl)-5-fluorophenyl]-1-methyl-4-imidazolecarbonitrile], the IC50 at Cbl-b was < 100 nM. Further, in the experiment with Jurkat cells (Homo sapiens), the EC50 was < 100 nM.

Consider `Cc1ccnnc1-c1cc(C#N)ccc1-c1cc(C2CC2)nc(-n2cc(C3CC3)c3cc(CN4CCC[C@H](C)C4)[nH]c3c2=O)c1` [Example 77], for which the IC50 on Cbl-b was < 100 nM. In addition, the EC50 in the experiment with Jurkat cells (Homo sapiens) was < 100 nM.

Take `Cn1ccnc1-c1cc(F)ccc1-c1cc(C2CC2)nc(-n2cc(C#N)c3cc(CNCCCF)[nH]c3c2=O)c1` [Example 86, 6-{6-cyclopropyl-4-[4-fluoro-2-(1-methyl-2-imidazolyl)phenyl]-2-pyridyl}-2-[(3-fluoropropylamino)methyl]-7-oxo-1,6-dihydro-1,6-diaza-4-indenecarbonitrile]: the 50% inhibitory concentration (IC50) at Cbl-b was < 100 nM. The EC50 with Jurkat cells (Homo sapiens) was < 100 nM.

For the compound `CO[C@@H](C)CNCc1cc2ncn(-c3cc(-c4ccc(C#N)cc4-n4nncc4CF)cc(C4CC4)n3)c(=O)c2[nH]1` [Example 139, 4-[2-(2-{[(S)-2-methoxypropylamino]methyl}-7-oxo-1,6-dihydro-1,4,6-triaza-6-indenyl)-6-cyclopropyl-4-pyridyl]-3-[5-(fluoromethyl)-1H-1,2,3-triazol-1-yl]benzonitrile], the IC50 at Cbl-b was < 100 nM. Besides, the EC50 with Jurkat cells (Homo sapiens) was < 100 nM.

On Cbl-b, `C[C@H]1CCCN(Cc2cc3c(C4CC4)cn(-c4cc(-c5ccc(F)cc5-c5cncn5C)cc(Cl)n4)c(=O)c3[nH]2)C1` [Example 23, 2-{[(S)-3-methyl-1-piperidyl]methyl}-6-{6-chloro-4-[4-fluoro-2-(1-methyl-5-imidazolyl)phenyl]-2-pyridyl}-4-cyclopropyl-1,6-dihydro-1,6-diaza-7-indenone] yielded an IC50 of 1000 to 5000 nM. Further, the EC50 in the experiment with Jurkat cells (Homo sapiens) is > 5000 nM.

`Cn1cnnc1-c1cc(F)ccc1-c1cc(C2CC2)nc(-n2cnc3cc(CC4COC4)[nH]c3c2=O)c1` [Example 123, 3-[6-cyclopropyl-4-[4-fluoro-2-(4-methyl-1,2,4-triazol-3-yl)phenyl]pyridin-2-yl]-6-(oxetan-3-ylmethyl)-5H-pyrrolo[3,2-d]pyrimidin-4-one]: the IC50 at Cbl-b is < 100 nM. In the experiment with Jurkat cells (Homo sapiens), this compound registered a concentration giving a half-maximal response (EC50) of 100 to 1000 nM.

As for `Cc1cc(-c2ccc(C#N)cc2-c2nccn2C)cc(-n2cc(C3CC3)c3cc(CN4CCC[C@H](C)C4)[nH]c3c2=O)n1` [Example 81, 4-[2-(2-{[(S)-3-methyl-1-piperidyl]methyl}-4-cyclopropyl-7-oxo-1,6-dihydro-1,6-diaza-6-indenyl)-6-methyl-4-pyridyl]-3-(1-methyl-2-imidazolyl)benzonitrile], the IC50 on Cbl-b was < 100 nM. For the same compound, the EC50 in the experiment with Jurkat cells (Homo sapiens) is < 100 nM.

With `Cc1ccnnc1-c1cc(F)ccc1-c1cc(C2CC2)nc(-n2cnc3cc(CN4CCO[C@H](C)C4)[nH]c3c2=O)c1` [Example 106, 3-[6-cyclopropyl-4-[4-fluoro-2-(4-methylpyridazin-3-yl)phenyl]pyridin-2-yl]-6-[[(2R)-2-methylmorpholin-4-yl]methyl]-5H-pyrrolo[3,2-d]pyrimidin-4-one], the IC50 on Cbl-b is < 100 nM. The concentration for a half-maximal effect (EC50) in the experiment on Jurkat cells (Homo sapiens) was < 100 nM.

Consider `Cn1cnnc1-c1cc(F)ccc1-c1cc(C2CC2)nc(-n2cnc3cc(CC4CCOCC4)[nH]c3c2=O)c1` [Example 122, 3-[6-cyclopropyl-4-[4-fluoro-2-(4-methyl-1,2,4-triazol-3-yl)phenyl]pyridin-2-yl]-6-(oxan-4-ylmethyl)-5H-pyrrolo[3,2-d]pyrimidin-4-one], for which the 50% inhibitory concentration (IC50) at Cbl-b was < 100 nM. The compound also had an EC50 in the experiment with Jurkat cells (Homo sapiens) of 100 to 1000 nM.

Consider `COc1cc(-c2ccc(F)cc2-c2nncn2C)cc(-n2cc(C3CC3)c3cc(CN4CCC[C@H](C)C4)[nH]c3c2=O)n1` [Example 8, 2-{[(S)-3-Methyl-1-piperidyl]methyl}-4-cyclopropyl-6-{4-[4-fluoro-2-(4-methyl-4H-1,2,4-triazol-3-yl)phenyl]-6-methoxy-2-pyridyl}-1,6-dihydro-1,6-diaza-7-indenone], for which, on Cbl-b, the IC50 is < 100 nM. Further, the 50% effective concentration (EC50) with Jurkat cells (Homo sapiens) was < 100 nM.

Regarding `Cn1cnnc1-c1cc(F)ccc1-c1cc(C2CC2)nc(-n2cnc3cc(C(F)F)[nH]c3c2=O)c1` [Example 128, 3-[6-cyclopropyl-4-[4-fluoro-2-(4-methyl-1,2,4-triazol-3-yl)phenyl]-pyridin-2-yl]-6-(difluoromethyl)-5H-pyrrolo[3,2-d]pyrimidin-4-one], the IC50 on Cbl-b is < 100 nM. The compound further displayed an EC50 in the experiment with Jurkat cells (Homo sapiens) of 100 to 1000 nM.

Turning to `C[C@@H](c1nc2c(C(F)(F)F)cn(-c3cc(-c4ccc(F)cc4-c4nncn4C)cc(C4CC4)n3)c(=O)c2[nH]1)C1CC1` [Example 46, 2-[(1R)-1-cyclopropylethyl]-5-[6-cyclopropyl-4-[4-fluoro-2-(4-methyl-1,2,4-triazol-3-yl)phenyl]pyridin-2-yl]-7-(trifluoromethyl)-3H-imidazo[4,5-c]pyridin-4-one], the IC50 on Cbl-b was < 100 nM. The EC50 in the experiment on Jurkat cells (Homo sapiens) was < 100 nM.

With `Cc1cnnn1-c1cc(F)ccc1-c1cc(C2CC2)nc(-n2cc(C(F)(F)F)c3nc(C4CC4)[nH]c3c2=O)c1` [Example 133, 2-cyclopropyl-5-{6-cyclopropyl-4-[4-fluoro-2-(5-methyl-1H-1,2,3-triazol-1-yl)phenyl]-2-pyridyl}-7-(trifluoromethyl)-3,5-dihydro-1,3,5-triaza-4-indenone], the IC50 at Cbl-b is < 100 nM. The EC50 in the experiment on Jurkat cells (Homo sapiens) fell in the range of 100 to 1000 nM.

Regarding `C[C@@H]1CN(Cc2cc3c(C#N)cn(-c4cc(-c5ccc(F)cc5-c5nncn5C)cc(C5CC5)n4)c(=O)c3[nH]2)CCO1` [Example 85, 6-[6-cyclopropyl-4-[4-fluoro-2-(4-methyl-1,2,4-triazol-3-yl)phenyl]pyridin-2-yl]-2-[[(2R)-2-methylmorpholin-4-yl]methyl]-7-oxo-1H-pyrrolo[2,3-c]pyridine-4-carbonitrile], the half-inhibitory concentration (IC50) on Cbl-b was < 100 nM. The EC50 in the experiment on Jurkat cells (Homo sapiens) is < 100 nM.

With `COCNCC1=CC2C(N1)C(=O)N(c1cc(-c3ccc(F)cc3-n3nncc3C)cc(C3CC3)n1)CC2C(F)(F)F` (stereo not shown) [Example 130, 6-[6-cyclopropyl-4-[4-fluoro-2-(5-methyltriazol-1-yl)phenyl]pyridin-2-yl]-2-[(methoxymethylamino)methyl]-4-(trifluoromethyl)-3a,4,5,7a-tetrahydro-1H-pyrrolo[2,3-c]pyridin-7-one], the IC50 at Cbl-b is < 100 nM. In addition, in the experiment on Jurkat cells, the EC50 was < 100 nM.

In the case of `C[C@H]1CCCN(Cc2cc3c(C4CC4)cn(-c4cc(-c5ccc(C#N)cc5-c5nccn5C(F)F)cc(C5CC5)n4)c(=O)c3[nH]2)C1` [Example 15, 4-[2-(2-{1[(S)-3-methyl-1-piperidyl]methyl}-4-cyclopropyl-7-oxo-1,6-dihydro-1,6-diaza-6-indenyl)-6-cyclopropyl-4-pyridyl]-3-[1-(difluoromethyl)-2-imidazolyl]benzonitrile], the IC50 at Cbl-b is < 100 nM. For the same compound, in the experiment with Jurkat cells (Homo sapiens), the concentration giving a half-maximal response (EC50) was < 100 nM.
